Measured values published in patent US9193669B2, “Compounds for treating ophthalmic diseases and disorders” (Acucela Inc., priority 2008, dated 2015).

Assays:
isomerase = target: T1, isomerase (Mus musculus, UniProt Q91ZQ5); experiment: In vivo murine isomerase assay; parameters: species or system mice; conditions: for inhibition in vivo at 1 mg/kg: mouse, po, 4 h, read-out: % Inibition 1 mg/kg, 4 h
T1 construct: The recovery of 11-cis-retinal after bleaching can be used to estimate the activity of isomerase in vivo; from tissue; host or cells: eyes of living mice (CD-1; Balb/c also named)
T1 sequence (Q91ZQ5 1-533): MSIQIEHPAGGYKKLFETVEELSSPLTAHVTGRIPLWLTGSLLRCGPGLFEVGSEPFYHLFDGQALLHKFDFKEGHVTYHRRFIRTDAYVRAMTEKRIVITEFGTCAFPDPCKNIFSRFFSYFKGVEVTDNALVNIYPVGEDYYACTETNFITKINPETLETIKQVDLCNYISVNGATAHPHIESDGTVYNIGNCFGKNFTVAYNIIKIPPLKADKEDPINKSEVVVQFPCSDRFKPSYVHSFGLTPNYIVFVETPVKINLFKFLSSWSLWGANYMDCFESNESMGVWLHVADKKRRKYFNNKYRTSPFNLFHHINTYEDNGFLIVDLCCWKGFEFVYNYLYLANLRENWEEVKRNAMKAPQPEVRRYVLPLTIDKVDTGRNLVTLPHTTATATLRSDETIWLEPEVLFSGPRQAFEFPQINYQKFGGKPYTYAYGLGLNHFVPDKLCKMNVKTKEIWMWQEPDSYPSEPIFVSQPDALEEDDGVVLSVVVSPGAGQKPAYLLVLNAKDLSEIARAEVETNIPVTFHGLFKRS
Method: The capability of compounds described herein to inhibit isomerase was determined by an in vivo murine isomerase assay. Brief exposure of the eye to intense light (“photobleaching” of the visual pigment or simply “bleaching”) is known to photo-isomerize almost all 11-cis-retinal in the retina. The recovery of 11-cis-retinal after bleaching can be used to estimate the activity of isomerase in vivo. Delayed recovery, as represented by lower 11-cis-retinal oxime levels, indicates inhibition of isomerization reaction. Procedures were performed essentially as described by Golczak et al., Proc. Natl. Acad. Sci. […] Mice were gavaged with the compounds described in the present disclosure. After about 2-24 hours in the dark, the mice were exposed to photobleaching of about 5,000 lux of white light for 10 minutes. The mice were allowed to recover for about 2 hours in the dark. The animals were then sacrificed by carbon dioxide inhalation. Retinoids were extracted from the eye and the regeneration of 11-cis-retinal was assessed at various time intervals. […] After the mice were sacrificed, the eyes were immediately removed and placed in liquid nitrogen for storage. The eyes were placed in about 500 μL of bis-tris propane buffer (10 mM, pH˜7.3) and about 20 μl of 0.8M hydroxylamine (pH˜7.3). The eyes were cut up into small pieces with small iris scissors and then thoroughly homogenized at 30000 rpm with a mechanical homogenizer (Polytron PT 1300 D) in the tube until no visible tissue remains. About 500 μL of methanol and about 500 μL of heptane was added to each tube. The tubes were attached to a vortexer so that the contents are mixed thoroughly for about 15 minutes in room temperature. […] The samples were analyzed on an Agilent 1100 HPLC system with normal phase column: SILICA (Beckman Coutlier, dp 5 μm, […]). […] Loading volume for each sample was about 100 μl; detection wavelength is 360 nm. The area under the curve for 11-cis-retinal oxime was calculated by Agilent Chemstation software and recorded manually. Data processing was performed using Prizm software. Positive control mice (no compound administered) were sacrificed fully dark-adapted and the eye retinoids analyzed. Light (bleached) control mice (no compound administered) were sacrificed and retinoids isolated and analyzed immediately after light treatment. A time course study was also performed to determine the isomerase inhibitory activity of compounds of the present disclosure. Female or male mice (such as Balb/c mice) (at least 4/group) received 0 to about 5 mg of compounds (in water) per kg bodyweight orally, by gavage. The animals were then “photo-bleached” (about 5000 Lux white light for about 10 minutes) at about 2, 4, 8, 16 and 24 hours after dosing, and returned to darkness to allow recovery of the 11-cis-retinal content of the eyes. Mice were sacrificed about 2 hours after bleaching, eyes were enucleated, and retinoid content was analyzed by HPLC. A dose response in vivo isomerase inhibition study is performed with compounds of the present disclosure. Male or female mice (such as Balb/c mice)(at least about 8/group) are dosed orally with about 0.01 to 25 mg/kg of the compounds of HCl salts of the compounds in sterile water as solution, and photobleached about 4 hours after dosing. Recovery and retinoid analysis is performed as described above. Dark control mice are vehicle-only treated, sacrificed fully dark adapted without light treatment, and analyzed. […]

[1] = target: T2, recombinant human RPE65 and LRAT (Homo sapiens, UniProt Q16518); experiment: Human in vitro isomerase inhibition reaction; type: biochemical; conditions: human in vitro isomerase assay, FIG. 1 and FIG. 2
T2 construct: made in house; host or cells: HEK293 cell clone (homogenate) for RPE65 and LRAT; E. coli TOP10 for CRALBP
T2 sequence (Q16518 2-533 limits assumed): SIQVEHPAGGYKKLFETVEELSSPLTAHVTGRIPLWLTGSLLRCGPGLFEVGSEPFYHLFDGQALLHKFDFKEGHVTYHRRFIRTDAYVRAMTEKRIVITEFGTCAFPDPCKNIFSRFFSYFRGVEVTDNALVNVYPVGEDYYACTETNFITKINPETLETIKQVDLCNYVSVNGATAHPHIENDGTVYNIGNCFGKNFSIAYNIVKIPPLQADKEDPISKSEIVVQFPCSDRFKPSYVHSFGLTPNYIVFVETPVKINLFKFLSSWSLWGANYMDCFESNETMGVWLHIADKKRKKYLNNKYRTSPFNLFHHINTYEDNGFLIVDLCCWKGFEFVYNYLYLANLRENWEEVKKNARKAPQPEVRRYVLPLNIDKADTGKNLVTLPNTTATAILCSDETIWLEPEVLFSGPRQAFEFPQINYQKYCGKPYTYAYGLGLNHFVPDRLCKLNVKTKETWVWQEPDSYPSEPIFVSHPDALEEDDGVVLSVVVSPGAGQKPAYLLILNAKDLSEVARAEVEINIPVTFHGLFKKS
Method: A homogenate of HEK293 cell clone expressing recombinant human RPE65 and LRAT were the source of the visual enzymes, and exogenous all-trans-retinol (about 20 μM) was used as the substrate. […] The 200 μL Bis-Tris Phosphate buffer (10 mM, pH 7.2) based reaction mixture also contains 0.5% BSA, and 1 mM NaPPi. In this assay, the reaction was carried out at 37° C. in duplicates for one hour and was terminated by addition of 300 μL methanol. The amount of reaction product, 11-cis-retinol, was measured by HPLC analysis following Heptane extraction of the reaction mixture.

Compound	inhibition in vivo at 1 mg/kg (isomerase)	inhibition of 11-cis-retinol production [1]	% Inibition 1 mg/kg, 24 h (isomerase; 1 mg/kg oral, 24 h after dosing, inhibition of 11-cis-retinal (oxime) recovery after photobleach)
NCCC(O)c1cccc(NS(=O)(=O)C2CCCCC2)c1 (centres unmarked) [Example 5, N-(3-(3-amino-1-hydroxypropyl)phenyl)cyclohexanesulfonamide]	-11.7 ± 4.36%	dose-dependent inhibition	
NCCCc1cccc(NS(=O)(=O)C2CCCCC2)c1 [Example 6, N-(3-(3-aminopropyl)phenyl)cyclohexanesulfonamide]	-11.9 ± 18.2%	dose-dependent inhibition	48.70 ± 2.71%
